Common to all, as to experiment: SelectScreen Kinase Profiling, single point inhibition and IC50 for off-target kinases
Holding throughout (assay type): biochemical

Test [1] has as its target T1, off-target kinases (Homo sapiens, UniProt Q12866, A708S).
T1 sequence (Q12866 21-999 A708S): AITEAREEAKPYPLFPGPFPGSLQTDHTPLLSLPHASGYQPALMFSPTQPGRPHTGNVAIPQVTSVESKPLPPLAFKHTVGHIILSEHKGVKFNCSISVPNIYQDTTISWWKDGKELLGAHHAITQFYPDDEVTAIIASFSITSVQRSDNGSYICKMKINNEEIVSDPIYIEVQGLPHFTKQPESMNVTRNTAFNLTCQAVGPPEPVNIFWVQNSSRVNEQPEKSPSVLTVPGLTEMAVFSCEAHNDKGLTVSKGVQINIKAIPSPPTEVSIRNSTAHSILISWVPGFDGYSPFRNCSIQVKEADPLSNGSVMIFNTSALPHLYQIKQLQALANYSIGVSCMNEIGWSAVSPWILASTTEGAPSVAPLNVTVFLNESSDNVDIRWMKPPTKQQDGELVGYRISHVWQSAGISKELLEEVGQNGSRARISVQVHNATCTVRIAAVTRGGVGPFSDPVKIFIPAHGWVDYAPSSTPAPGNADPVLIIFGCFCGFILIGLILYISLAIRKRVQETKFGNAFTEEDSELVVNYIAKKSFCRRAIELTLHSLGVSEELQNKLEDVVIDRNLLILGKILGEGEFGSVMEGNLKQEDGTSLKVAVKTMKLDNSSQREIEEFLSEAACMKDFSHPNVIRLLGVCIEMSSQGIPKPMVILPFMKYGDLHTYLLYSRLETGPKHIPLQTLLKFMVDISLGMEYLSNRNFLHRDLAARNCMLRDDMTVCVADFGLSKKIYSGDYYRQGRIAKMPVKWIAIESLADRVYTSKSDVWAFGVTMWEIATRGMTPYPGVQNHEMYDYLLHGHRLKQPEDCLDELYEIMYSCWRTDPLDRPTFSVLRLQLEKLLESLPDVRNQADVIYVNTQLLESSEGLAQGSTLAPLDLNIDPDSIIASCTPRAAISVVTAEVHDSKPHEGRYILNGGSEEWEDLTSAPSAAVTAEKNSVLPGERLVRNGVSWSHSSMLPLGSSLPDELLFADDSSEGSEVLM
The following applies: MERTK (cMER) A708S, mutant y, LanthaScreen Binding. For orientation: Time-resolved FRET reads energy transfer from a long-lived donor to a nearby acceptor.

In test [2] the target is off-target kinases (Homo sapiens, UniProt Q15208). The following applies: STK38 (NDR), LanthaScreen Binding.
Test [3] has as its target T2, off-target kinases (Homo sapiens, UniProt Q16832).
T2 sequence (Q16832 22-855): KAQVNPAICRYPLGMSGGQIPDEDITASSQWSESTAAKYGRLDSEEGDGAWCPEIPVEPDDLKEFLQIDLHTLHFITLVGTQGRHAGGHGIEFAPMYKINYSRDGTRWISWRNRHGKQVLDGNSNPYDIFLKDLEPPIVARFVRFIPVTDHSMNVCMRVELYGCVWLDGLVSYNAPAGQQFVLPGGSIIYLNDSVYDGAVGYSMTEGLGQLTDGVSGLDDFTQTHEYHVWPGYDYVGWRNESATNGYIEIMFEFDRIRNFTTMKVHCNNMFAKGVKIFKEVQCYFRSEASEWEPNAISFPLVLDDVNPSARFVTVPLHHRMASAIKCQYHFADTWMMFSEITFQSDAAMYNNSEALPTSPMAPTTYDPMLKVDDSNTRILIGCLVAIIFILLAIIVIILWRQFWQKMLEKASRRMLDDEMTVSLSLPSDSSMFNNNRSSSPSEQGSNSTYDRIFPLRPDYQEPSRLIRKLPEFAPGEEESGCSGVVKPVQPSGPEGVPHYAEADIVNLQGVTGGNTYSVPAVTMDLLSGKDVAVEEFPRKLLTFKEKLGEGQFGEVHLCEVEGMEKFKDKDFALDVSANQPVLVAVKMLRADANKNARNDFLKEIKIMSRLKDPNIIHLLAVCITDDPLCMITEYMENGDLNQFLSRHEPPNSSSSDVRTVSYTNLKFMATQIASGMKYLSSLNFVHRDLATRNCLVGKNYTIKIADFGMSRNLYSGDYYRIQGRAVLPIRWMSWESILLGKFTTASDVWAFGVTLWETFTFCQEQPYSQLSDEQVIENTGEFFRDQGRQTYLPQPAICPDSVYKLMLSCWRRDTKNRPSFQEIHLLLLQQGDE
To be noted: DDR2, LanthaScreen Binding.

Read-outs that look alike come from different tables or passages of the source.

Sequence of off-target kinases (Homo sapiens, UniProt Q15208) (Q15208 whole entry): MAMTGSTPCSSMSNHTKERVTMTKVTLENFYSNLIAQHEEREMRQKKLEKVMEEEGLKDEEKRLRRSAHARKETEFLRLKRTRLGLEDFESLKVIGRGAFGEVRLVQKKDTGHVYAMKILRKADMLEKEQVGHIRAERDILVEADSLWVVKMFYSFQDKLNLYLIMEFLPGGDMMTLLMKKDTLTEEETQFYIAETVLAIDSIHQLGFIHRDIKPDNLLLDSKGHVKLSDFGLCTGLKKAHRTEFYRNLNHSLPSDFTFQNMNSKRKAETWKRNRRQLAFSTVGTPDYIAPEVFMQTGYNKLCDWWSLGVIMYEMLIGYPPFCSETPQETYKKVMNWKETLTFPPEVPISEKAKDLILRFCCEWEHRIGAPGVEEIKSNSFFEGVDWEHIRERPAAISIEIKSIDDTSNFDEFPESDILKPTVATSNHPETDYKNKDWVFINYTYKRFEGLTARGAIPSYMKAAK

The term inhibition denotes how much of the control response was suppressed. `N#Cc1cc(-c2ncnc(Nc3ccc(N4CCN(C5COC5)CC4)cc3)n2)ccc1OC1CCOCC1` [Compound 1, 5-(4-((4-(4-(oxetan-3-yl)piperazin-1-yl)phenyl)amino)-1,3,5-triazin-2-yl)-2-((tetrahydro-2H-pyran-4-yl)oxy)benzonitrile]: the inhibition at off-target kinases [1] (read-out: % Inhibition 1) turned out to be 24%; on off-target kinases [1] (read-out: % Inhibition 2), 27%; on off-target kinases [1] (read-out: % Inhibition Avg) it was 26%; at off-target kinases [2] (read-out: % Inhibition 1), 51%; at off-target kinases [2] (read-out: % Inhibition 2), 49%; at off-target kinases [2] (read-out: % Inhibition Avg) it was 50%. The inhibition at off-target kinases [3] (read-out: % Inhibition 1) is 0%; at off-target kinases [3] (read-out: % Inhibition 2), 1%; at off-target kinases [3] (read-out: % Inhibition Avg), 0%.

Source of the values: patent US11572590B2, “Methods for evaluating tumor cell spheroids using 3D microfluidic cell culture device” (Dana-Farber Cancer Institute, Inc., priority 2017, dated 2023).
